Reference: patent publication US11419902B2, “Compositions comprising bacterial strains” (4D Pharma Research Limited, priority 2018, dated 2022)

Assays:
[1] = system: HT29 colorectal cancer cell line; experiment: Clonogenic survival of HT29 cell line; format: cell-based; conditions: HT29, added to MRx0029
Procedure: (§1) Cells were trypsinized and 200 cells/well were seeded in 12-well plates. After 48 h cells were treated with the appropriate drugs in absence (YCFA+) or presence of 10% bacterial supernatant and were re-fed every three days. On day 21 after seeding, cells were fixed in ice-cold methanol and stained with Crystal Violet blue. […] were counted and survival fraction was calculated as number of colonies divided by the number of plated cells (plating efficiency) of treated divided by the plating efficiency of control.
The effects of the following treatments were assessed on the HT29 colorectal cancer cell line (V600E oncogenic mutation in BRAF): (1) MRx0029; (2) Vemurafenib (VEMU) in YFCA+ medium; (3) VEMU and MRx0029; (4) Azacytidine-C (Aza-c) in YCFA+ medium; (5) Aza-c and MRx0029; (6) VEMU, Aza-c and MRx0029.

[2] = system: SKMEL31 melanoma cell line; experiment: Clonogenic survival of SKMEL31 cell line; format: cell-based; conditions: SKMEL31, added to MRx0029
Procedure: as §1
(§2) The effects of the following treatments were assessed on the SKMEL31 melanoma cell line (heterozygous for BRAF V600E): (1) MRx0029; (2) Vemurafenib (VEMU) in YFCA+ medium; (3) VEMU and MRx0029; (4) Azacytidine-C (Aza-c) in YFCA+ medium; (5) Aza-c and MRx0029; (6) VEMU, Aza-c and MRx0029.

[3] = system: 451Lu melanoma cell line; experiment: Soft agar growth of 451Lu cell line; format: cell-based; conditions: added to MRx0029
Procedure: (§3) A mixture of 25 μL prewarmed (37° C.) 2× appropriate growth medium (EMEM for melanoma cell lines; DMEM high glucose for HT29) containing 20% FBS, 4 mM L-Glu, 2×NEAA, 0.6% sodium bicarbonate, 200 U/mL penicillin/streptomycin (Invitrogen), and 25 μL prewarmed (47° C.) 1.2% Noble Agar (A5431; Sigma Aldrich) were plated onto each well of a 96-well microplate to serve as a prelayer for the assay. Ten microliters of cell suspensions containing 0-2×10^3 cells were mixed with 25 μL 2× growth media and 35 μL 0.8% Noble Agar in a 96-well round-bottom polypropylene microplate and transferred to the 96-well microplate containing the solidified prelayers. […] They left to grow in the humidified 37° C. incubator with 5% CO2 for 1-2 weeks before soft agar growth was scored using the CytoSelect 96 well cell transformation assay (CBA-130; Cell Biolabs) according to the manufacturer's protocol. Cell growth was measured using a Tecan Infinite F200 Pro Series Multi-Well Plate Reader (Tecan Biosystems), with excitation at 485 nm and emission at 530 nm. […]
The effects of the following treatments were assessed on the 451Lu melanoma cell line (V600E oncogenic mutation in BRAF): (1) MRx0029; (2) Vemurafenib (VEMU) in YFCA+ medium; (3) VEMU and MRx0029; (4) Azacytidine-C (Aza-c) in YFCA+ medium; (5) Aza-c and MRx0029; (6) VEMU, Aza-c and MRx0029.

[4] = system: SKMEL31 melanoma cell line; experiment: Soft agar growth of SKMEL31 cell line; format: cell-based; conditions: SKMEL31, added to MRx0029
Procedure: as §3, §2

[5] = system: IL-8; experiment: IL-8 secretion by differentiated HT29-mtx cells; format: cell-based; conditions: 24 h, vs untreated and YCFA+-treated cells
Text: The ability of MRx0029 to cause any intestinal barrier dysfunction was investigated. HT29-mtx epithelial, mucin-producing cell monolayers were used as an in vitro model to evaluate gut barrier disruption and immune stimulation following treatment with MRx0029.

[6] = system: IL-8; experiment: IL-8 secretion in U373 cells treated with SCFAs or supernatant fractions (ELISA); format: cell-based, Human; conditions: U373 cells pre-treated 1 h with 1 μg/ml LPS, increasing concentrations
Procedure: Human glioblastoma astrocytoma cell line (U373), were maintained in 25 ml MEME 4.5 g/L D-glucose supplemented with 10% heat-inactivated FBS, 4 mM L-Glutamine, 100 U/ml penicillin, 100 μg/ml streptomycin and 5 μg/ml plasmocin, 1% Non-Essential Amino Acids, 1% Sodium Pyruvate (referred to as full growth media).
U373 cells were prepared as described above. Cells were pre-treated for 1 h with 1 μg/ml LPS indicated above and incubated at 37° C. and 5% CO2. After 1 h pre-incubation, cells were removed from CO2 incubator and treated with increasing concentration of fresh prepared Sodium Butyrate (SB), Sodium Valerate (SV) and Hexanoic Acid (HA).
U373 cells were prepared as described above. Cells were pre-treated for 1 h with 1 μg/ml LPS as indicated above. Afterwards, cells were removed from CO2 incubator and treated with 100 μl of the different fractions. Fractions from media were used as controls. Cell-free supernatants were collected 24 h after treatment and analysed by ELISA for IL-8 secretion (as outlined above).

[7] = system: HDAC; experiment: HDAC inhibition on HT-29 cell lysate; format: biochemical
Procedure: (§4) Pure cultures of bacteria were grown anaerobically in YCFA+ broth until they reached their stationary growth phase. Cultures were centrifuged at 5,000×g for 5 minutes and the cell-free supernatant (CFS) was filtered using a […] (Millipore, UK). 1 mL aliquots of the CFS were stored at −80° C. until use. Sodium butyrate, hexanoic and valeric acid were obtained from Sigma Aldrich (UK) and suspensions were prepared in YCFA+ broth.
(§5) To investigate which metabolites were responsible for the strain-induced HDAC inhibition, different concentrations of hexanoic acid, valeric acid and sodium butyrate were measured for their HDAC inhibition on whole HT-29 cells and on HT-29 cell lysate.

[8] = system: HDAC; experiment: HDAC inhibition on whole HT-29 cells; format: cell-based
Procedure: as §4, §5

Structure (SMILES) | LPS-induced secretion of IL-8 [6] | HDAC inhibition on HT-29 cell lysate [7] | HDAC inhibition on whole HT-29 cells [8] | further results
Nc1ncn([C@@H]2O[C@H](CO)[C@@H](O)[C@H]2O)c(=O)n1 [Aza-c, Azacytidine-C] |  |  |  | effect on inhibition of clonogenic survival by MRx0029 [1]: improved the effects of MRx0029 in inhibiting clonogenic survival; effect on clonogenic survival inhibition by MRx0029 [2]: improved; effect on soft agar growth inhibition by MRx0029 [3]: enhanced soft agar growth inhibition by MRx0029; effect on soft agar growth inhibition by MRx0029 [4]: improved
CCCCCCCCCCCCCC(=O)O[C@@H]1[C@@H](C)[C@@]2(O)[C@@H](C=C(CO)C[C@]3(O)C(=O)C(C)=C[C@@H]23)[C@@H]2C(C)(C)[C@]12OC(C)=O [PMA, phorbol 12-myristate-13-acetate, reference compound] |  |  |  | secretion of IL-8 [5]: secreted a significant amount of IL-8
CCCCC(=O)[O-].[Na+] [SV, sodium valerate] | increased LPS-induced secretion of IL-8 |  |  | 
CCCCCC(=O)O [hexanoic acid] | did not inhibit IL-8 secretion | did not show significant inhibitory activity | did not show significant inhibitory activity | 
CCCC(=O)[O-].[Na+] [sodium butyrate] | increased LPS-induced secretion of IL-8 | significant (P<0.05) inhibition of HDAC activity | significant (P<0.05) inhibition of HDAC activity | 
CCCCC(=O)O [valeric acid] |  | inhibited HDAC activity | inhibited HDAC activity | 
